{
  "source": "patent US12128045B2",
  "about": "“Platinum-resistant cancer treatment” (BTG International Limited, priority 2017, dated 2024)",
  "key": {"[1]": {"system": "platinum-sensitive epithelial ovarian cancer", "conditions": "1,100 patient Phase III, with paclitaxel and carboplatin; cited from earlier work"}, "[2]": {"conditions": "in vivo; cited from earlier work"}, "[3]": {"molecular_target": "T1, folylpolyglutamate synthase (FPGS) (Homo sapiens, UniProt Q05932)", "T1 sequence (Q05932 43-587)": "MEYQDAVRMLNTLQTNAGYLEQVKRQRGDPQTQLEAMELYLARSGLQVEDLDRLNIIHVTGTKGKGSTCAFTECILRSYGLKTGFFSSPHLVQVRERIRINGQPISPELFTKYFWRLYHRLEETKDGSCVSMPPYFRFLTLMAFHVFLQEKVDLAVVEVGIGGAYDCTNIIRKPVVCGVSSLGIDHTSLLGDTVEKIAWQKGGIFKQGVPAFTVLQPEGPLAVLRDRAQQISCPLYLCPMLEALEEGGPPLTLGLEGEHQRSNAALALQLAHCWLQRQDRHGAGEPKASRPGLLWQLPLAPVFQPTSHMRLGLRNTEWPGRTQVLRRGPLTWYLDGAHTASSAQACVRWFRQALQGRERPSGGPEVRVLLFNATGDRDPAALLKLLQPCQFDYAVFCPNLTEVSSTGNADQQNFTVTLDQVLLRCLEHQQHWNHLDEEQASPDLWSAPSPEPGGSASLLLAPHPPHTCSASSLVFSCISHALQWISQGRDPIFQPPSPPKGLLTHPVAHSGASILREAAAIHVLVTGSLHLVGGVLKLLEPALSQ", "conditions": "cited from earlier work"}, "[4]": {"experiment": "Phase I trial EudraCT3941 (Example 1): safety and toxicity", "format": "in vivo, human", "source_text": "(§1) Methods: A 3+3 dose escalation design was used and two IV schedules were explored. Schedule A, weekly dosing (QW) and schedule B, once every 2 weeks dosing (Q2W). A cycle consisted of 4 weeks and treatment was stopped after 6 cycles in both schedules. An expansion cohort to evaluate clinical activity in patients with FR-α overexpressing high grade serous ovarian cancer (HGSOC) was initiated."}, "[5]": {"system": "high grade serous ovarian cancer (HGSOC)", "experiment": "Phase I trial EudraCT3941 (Example 1): tumour response (RECIST partial responses)", "format": "in vivo, human", "source_text": "as §1"}, "[6]": {"experiment": "Half life on administration to man", "conditions": "in vivo"}, "[7]": {"conditions": "in vivo; cited from earlier work", "remark": "listed apart in the source"}, "[8]": {"molecular_target": "thymidylate synthase (TS)", "conditions": "read-out: Ki against isolated target thymidine synthase; cited from earlier work"}, "thymidylate synthase": {"molecular_target": "T2, thymidylate synthase (Homo sapiens, UniProt P04818)", "T2 construct": "from tissue; host or cells: tumour tissue of trial patients, in vivo", "T2 sequence (P04818 2-313 limits assumed)": "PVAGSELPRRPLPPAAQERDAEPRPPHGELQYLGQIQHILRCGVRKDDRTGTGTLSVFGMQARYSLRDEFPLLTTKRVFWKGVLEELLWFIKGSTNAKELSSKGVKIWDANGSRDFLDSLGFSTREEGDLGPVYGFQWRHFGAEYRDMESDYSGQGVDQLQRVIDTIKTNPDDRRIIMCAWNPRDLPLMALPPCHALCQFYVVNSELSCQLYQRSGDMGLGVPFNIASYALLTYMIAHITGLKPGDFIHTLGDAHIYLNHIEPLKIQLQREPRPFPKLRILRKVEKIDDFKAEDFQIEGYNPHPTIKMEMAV", "experiment": "FLT PET imaging of thymidylate synthase inhibition in trial patients", "conditions": "in vivo", "source_text": "3827-3834. 2008 (Pillai et al)."}, "[9]": {"molecular_target": "alpha-folate receptor (FR-α) (Homo sapiens, UniProt P15328)", "sequence (P15328 25-234, species assumed)": "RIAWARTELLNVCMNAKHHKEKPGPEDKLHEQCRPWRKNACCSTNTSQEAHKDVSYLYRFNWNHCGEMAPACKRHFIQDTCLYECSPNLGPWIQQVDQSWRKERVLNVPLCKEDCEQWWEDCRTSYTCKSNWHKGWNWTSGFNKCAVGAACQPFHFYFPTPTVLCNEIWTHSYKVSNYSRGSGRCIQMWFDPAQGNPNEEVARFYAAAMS", "conditions": "relative to folic acid; Theti et al., 2003; cited from earlier work"}, "[10]": {"system": "reduced folate carrier (RFC)", "conditions": "except at high concentrations; Gibbs et al., 2005; cited from earlier work"}, "[11]": {"system": "tumour cell proliferation", "experiment": "Inhibition of tumour cell proliferation in vitro", "format": "cell-based"}, "[12]": {"experiment": "Phase I trial EudraCT3941 (Example 1): pharmacokinetics", "format": "in vivo, human", "source_text": "as §1"}, "[13]": {"system": "platinum resistant epithelial ovarian cancer", "conditions": "6 mg/kg every three weeks, cited from earlier work"}, "[14]": {"conditions": "expansion cohort, archival samples analysed"}},
  "data": [
    {"compound": "Farletuzumab: FR-α targeted monoclonal antibody", "values": [
      {"measurement": "progression free survival (PFS)", "setting": "[1]", "value": "failed to improve progression free survival"}
    ]},
    {"compound": "Cc1nc2ccc(CN(C)c3ccc(C(=O)N[C@@H](CCC(=O)O)C(=O)O)s3)cc2c(=O)[nH]1", "note": "[Raltitrexed, raltitrexed]", "values": [
      {"measurement": "half-life in plasma", "setting": "[2]", "value": "fairly short"},
      {"measurement": "substrate for FPGS", "setting": "[3]", "value": "excellent substrates"}
    ]},
    {"compound": "C#CCN(c1ccc(C(=O)N[C@@H](CCC(=O)N[C@H](CCC(=O)O)C(=O)O)C(=O)O)cc1)[C@H]1CCc2cc3nc(CO)[nH]c(=O)c3cc21", "note": "[BTG945, N—{N-{4-[N-((6S)-2-Hydroxymethyl-4-oxo-3,4,7,8-tetrahydro-6H-cyclo-penta[g]quinazolin-6-yl)-N-(prop-2-ynyl)amino]benzoyl}-L-γ-glutamyl}-D-glutamic acid]", "values": [
      {"measurement": "grade 3-4 diarrhea, mucositis or neutropenia", "setting": "[4]; human, in vivo, 24 weeks", "value": "No grade 3-4 diarrhea, mucositis or neutropenia"},
      {"measurement": "incidence of dysgeusia", "setting": "[4]; human, in vivo, 24 weeks", "value": 12, "unit": "%"},
      {"measurement": "incidence of fatigue", "setting": "[4]; human, in vivo, 24 weeks", "value": 36, "unit": "%"},
      {"measurement": "incidence of nausea", "setting": "[4]; human, in vivo, 24 weeks", "value": 21, "unit": "%"},
      {"measurement": "cases of suspected drug-related drop in Dlco", "setting": "[4]; in vivo", "value": "No cases"},
      {"measurement": "conventional toxicities of cytotoxic chemotherapy (myelotoxicity, nephrotoxicity, neurotoxicity)", "setting": "[4]; in vivo", "value": "not observed"},
      {"measurement": "dose limiting effects other than BOOP", "setting": "[4]; in vivo", "value": "not seen"},
      {"measurement": "occurrence of treatment limiting BOOP", "setting": "[4]; in vivo", "value": "without occurrence"},
      {"measurement": "side effects associated with α-folate receptor antibody conjugates (diarrhoea, blurred vision, nausea)", "setting": "[4]; in vivo", "value": "not observed"},
      {"measurement": "side effects normally associated with thymidine synthase inhibitors (neutropenia, diarrhoea, hair loss)", "setting": "[4]; in vivo", "value": "not observed"},
      {"measurement": "dose limiting toxicity", "setting": "[4]; schedule A, weekly IV dosing (QW), 1-6 mg/m^2", "value": "G3 cellulitis"},
      {"measurement": "dose limiting toxicity", "setting": "[4]; schedule B, IV once every 2 weeks (Q2W), 2-12 mg/m^2", "value": "no dose limiting toxicity"},
      {"measurement": "patients with HGSOC with partial responses (PRs)", "setting": "[5]; dose escalation cohort", "value": 5, "unit": "patients"},
      {"measurement": "patients with PRs", "setting": "[5]; expansion cohort, HGSOC, 12 mg/m^2 Q2W", "value": "5/11"},
      {"measurement": "AFR+ve patients with PR", "setting": "[5]; [14]", "value": "4/4"},
      {"measurement": "AFR−ve patients who did not have a PR", "setting": "[5]; [14]", "value": "4/4"},
      {"measurement": "half life levels on administration to man", "setting": "[6]", "value": "unusually long"},
      {"measurement": "dose at which toxicity occurred (incidence of BOOP)", "setting": "[7]", "value": 45, "unit": "mg/m^2"},
      {"measurement": "Ki", "setting": "[8]", "value": 1.2, "unit": "nM"},
      {"measurement": "thymidylate synthase inhibition by FLT PET imaging", "setting": "thymidylate synthase", "value": "Evidence of thymidylate synthase inhibition"},
      {"measurement": "affinity for α-FR as % of folic acid (FA)", "setting": "[9]", "value": 70, "unit": "%"},
      {"measurement": "affinity for reduced folate carrier (RFC)", "setting": "[10]", "value": "negligible affinity"},
      {"measurement": "substrate for FPGS", "setting": "[3]", "value": "not a substrate"},
      {"measurement": "inhibition of tumour cell proliferation in vitro", "setting": "[11]", "value": "concentration and time-dependent inhibition"},
      {"measurement": "period for which concentrations above 0.5 μM were achieved", "setting": "[12]; doses above 6 mg/m^2", "value": 72, "unit": "h"},
      {"measurement": "period for which concentrations between 0.05-1 μM were achieved", "setting": "[12]; doses of 4 mg/m^2 and above", "value": 48, "unit": "h"},
      {"measurement": "AUC", "setting": "[12]; human, in vivo, iv, 12 mg/m2", "value": 85200, "unit": "ng·h/mL"},
      {"measurement": "Cmax", "setting": "[12]; human, in vivo, iv, 12 mg/m2", "value": 4950, "unit": "ng/mL"},
      {"measurement": "half-life", "setting": "[12]; human, in vivo, iv, 12 mg/m2", "value": 26, "unit": "h"}
    ]},
    {"compound": "IMGN853: Antibody-drug conjugate, FR-α targeted", "values": [
      {"measurement": "share of patients with three or less prior lines of therapy showing this outcome", "setting": "[13]", "value": 39, "unit": "%"},
      {"measurement": "PFS", "setting": "[13]; patients with three or less prior lines of therapy", "value": 6.7, "unit": "months"}
    ]},
    {"compound": "Nc1nc2[nH]cc(CCc3ccc(C(=O)N[C@@H](CCC(=O)O)C(=O)O)cc3)c2c(=O)[nH]1", "note": "[pemetrexed]", "values": [
      {"measurement": "half-life in plasma", "setting": "[2]", "value": "fairly short"},
      {"measurement": "substrate for FPGS", "setting": "[3]", "value": "excellent substrates"}
    ]},
    {"compound": "C#CCN(Cc1cc2c(=O)[nH]c(C)nc2cc1C)c1ccc(C(=O)N[C@@H](CCc2nnn[nH]2)C(=O)O)c(F)c1", "note": "[Plevitrexed, plevitrexed]", "values": [
      {"measurement": "half-life in plasma", "setting": "[2]", "value": "long"},
      {"measurement": "substrate for FPGS", "setting": "[3]", "value": "not a substrate"}
    ]}
  ]
}
